Measured values taken from ChEMBL document CHEMBL5728935, “Heterocycles useful as anti-cancer agents” (2022).

Columns and labels:
CDK4/Cyclin D3 = CDK4/Cyclin D3 (Homo sapiens, UniProt P11802+P30281); assay: (§1) Kinase Assay: In vitro enzymatic activity of the CDK isoforms CDK2/CycA2, CDK4/CycD3 and CDK6/cycD3 were measured using Mobility Shift Assay that monitors phosphorylation ratio of FAM labelled peptide (Peptide 18 for CDK2/CycA2, Peptide 8 for CDK4/CycD3 and CDK6/cycD3). CDK2/CycA2 and CDK6/cycD3 were assayed under buffer conditions in the presence of 50 mM HEPES (pH 7.5), 10 mM MgCl2, 0.0015% Brij-35, and 2 mM dithiothreitol, CDK4/CycD3 with buffer condition of 20 mM HEPES (pH 7.5), 10 mM MgCl2, 0.01% Triton X-100, and 2 mM dithiothreitol. Prepare compounds to 50× of the final desired highest inhibitor concentration by 100% DMSO and serial dilution in 3-fold for total of 10 concentrations. […] After assay for 60 min, 180 min, 60 min respectively at 28° C., reactions were terminated with stop solution (50 mM EDTA, 0.015% Brij-35, 0.2% Coating Reagent #3 and 100 mM HEPES (pH 7.5)). Collect conversion on Caliper EZ Reader.; assay type: protein-complex assay
CDK2/Cyclin A2 = CDK2/Cyclin A2 (Homo sapiens, UniProt P24941); assay: as §1; assay type: protein-complex assay

CDK4/Cyclin D3, sequence (P11802 whole entry, canonical isoform): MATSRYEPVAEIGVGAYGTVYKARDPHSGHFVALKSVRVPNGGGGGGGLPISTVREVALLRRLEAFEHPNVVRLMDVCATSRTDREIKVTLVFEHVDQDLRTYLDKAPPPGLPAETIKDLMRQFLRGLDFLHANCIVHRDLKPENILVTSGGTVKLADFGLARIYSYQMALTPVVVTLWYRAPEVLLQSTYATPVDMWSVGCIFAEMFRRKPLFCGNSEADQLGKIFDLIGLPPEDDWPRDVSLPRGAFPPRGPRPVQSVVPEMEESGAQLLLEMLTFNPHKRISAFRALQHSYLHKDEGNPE
CDK4/Cyclin D3, sequence (P30281 whole entry, canonical isoform): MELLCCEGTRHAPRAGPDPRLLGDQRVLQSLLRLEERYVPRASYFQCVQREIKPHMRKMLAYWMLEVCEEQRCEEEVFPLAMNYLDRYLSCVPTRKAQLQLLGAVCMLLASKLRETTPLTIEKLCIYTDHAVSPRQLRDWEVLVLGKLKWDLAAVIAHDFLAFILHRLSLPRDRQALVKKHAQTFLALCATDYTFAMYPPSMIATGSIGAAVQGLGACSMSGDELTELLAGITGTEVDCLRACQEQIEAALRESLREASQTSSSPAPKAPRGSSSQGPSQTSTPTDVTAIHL

IC50 (CDK4/Cyclin D3) [µM] | IC50 (CDK2/Cyclin A2) [µM] | Compound
< 0.1 |  | CC(=O)c1c(C)c2cnc(Nc3ccc(N4CC5CNCC(C4)C5(F)F)cn3)nc2n(C2CCCC2)c1=O
 | < 0.01 | CC(=O)c1c(C)c2cnc(Nc3ccc4c(c3)OC[C@@H]3CNCCN43)nc2n(C2CCCC2)c1=O
 | < 0.01 | CC(=O)c1c(C)c2cnc(Nc3ccc4c(c3)OC[C@H]3CNCCN43)nc2n(C2CCCC2)c1=O
